Laboratory results from patent publication US8791106B2, “Fused ring pyridine compound” (Astellas Pharma Inc., priority 2010, dated 2014).

target: T1, human CB2 (Homo sapiens, UniProt P34972); assay: Test on inhibition of human CB2-mediated cyclic AMP (cAMP) production; format: cell-based; details: 30 nM test substance; forskolin 0.5 μM; human CB2-expressing CHO cells; 30 minutes at room temperature; read-out: Inh(%): inhibition rate of cAMP increase
T1 construct: expressed in transfected cells; host or cells: CHO cells
T1 sequence (P34972 whole entry): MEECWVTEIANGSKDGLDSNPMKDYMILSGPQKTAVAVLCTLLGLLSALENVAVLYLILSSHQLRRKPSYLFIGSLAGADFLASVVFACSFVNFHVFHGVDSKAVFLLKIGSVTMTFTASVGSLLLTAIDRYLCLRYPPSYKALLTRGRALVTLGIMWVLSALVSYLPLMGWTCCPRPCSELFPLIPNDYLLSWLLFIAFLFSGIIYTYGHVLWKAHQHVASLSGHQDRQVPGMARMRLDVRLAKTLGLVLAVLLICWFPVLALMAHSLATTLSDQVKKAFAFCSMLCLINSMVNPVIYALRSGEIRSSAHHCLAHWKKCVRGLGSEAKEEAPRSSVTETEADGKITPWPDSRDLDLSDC
Experimental: This test was performed using CHO cells caused to express human CB2 (“Molecular Pharmacology”, 1995, Vol. 48, pp 443-450).
A human CB2-expressing CHO cell (2.5×10^3/mL) suspension and an assay medium supplemented with a test substance and forskolin (final concentration of 0.5 μM) were mixed together in equal amounts, followed by incubation for 30 minutes at room temperature, and then a 0.6% Triton X-100 solution was added thereto, thereby obtaining a cell lysate. A cAMP concentration in the cell lysate was measured using a cAMP kit (manufactured by Cisbio International). The assay medium was obtained by supplementing α-MEM manufactured by Invitrogen with 0.02% CHAPS, 1 mM isobutylmethylxanthine, and 0.5 mg/mL bovine serum albumin. The cAMP concentration in a forskolin-free cell suspension was regarded as 0% of increase in cAMP, and the cAMP concentration in a forskolin-added cell suspension was regarded as a 100% increase in cAMP, thereby allowing calculation of the inhibition rate of intracellular cAMP increase in 30 nM test substance.
In the table, Ex represents the example number of a test compound described later, and Inh represents inhibition rate of cAMP increase.

Point of comparison: `O=C(c1ncc(Nc2cccc(OC(F)(F)F)c2)c2c1C1CCC2CC1)N1CCS(=O)(=O)CC1` [Example 125], inhibition at 0.03 µM 100%. Against it:
- O=C(c1cnc(Nc2cc(F)cc(Cl)c2)c2c1C1CCC2CC1)N1CCS(=O)(=O)CC1 [Example 179] — the same, 100%
- O=C(c1cnc(Nc2cccc(C(F)(F)F)c2)c2c1C1CCC2CC1)N1CCS(=O)(=O)CC1 [Example 112] — higher, 103%
- Cc1cccc(Nc2cnc(C(=O)N3CCS(=O)(=O)CC3)c3c2C2CCC3CC2)c1F [Example 164] — higher, 119%
- O=C(c1ncc(Nc2cccc(Cl)c2)c2c1C1CCC2CC1)N1CCS(=O)(=O)CC1 [Example 98] — lower, 96%
- O=C(c1ncc(Nc2cccc(Cl)c2)c2c1C1CCC2C1)N1CCS(=O)(=O)CC1 (stereo not shown) [Example 94-1] — lower, 97%
- Cc1ccc(F)c(Nc2cnc(C(=O)N3CCS(=O)(=O)CC3)c3c2C2CCC3CC2)c1 [Example 165] — higher, 111%
- O=C(c1ncc(Nc2cccc(Cl)c2)c2c1CCCC2)N1CCS(=O)(=O)CC1 [Example 10] — lower, 73%
- O=C(c1cnc(Nc2cccc(Cl)c2)c2c1C1CCC2C1)N1CCS(=O)(=O)CC1 (stereo not shown) [Example 117-2] — the same, 100%
- O=C(c1ncc(Nc2ccc(F)c(Cl)c2)c2c1C1CCC2C1)N1CCS(=O)(=O)CC1 (stereo not shown) [Example 59] — lower, 93%
- O=C(c1cnc(Oc2cccc(C(F)(F)F)c2)c2c1CCCC2)N1CCS(=O)(=O)CC1 [Example 52] — lower, 96%
- O=C(c1cnc(Nc2cccc(OC(F)(F)F)c2)c2c1C1CCC2C1)N1CCS(=O)(=O)CC1 (stereo not shown) [Example 120-2] — higher, 105%
- Cc1ccc(Nc2cnc(C(=O)N3CCS(=O)(=O)CC3)c3c2C2CCC3CC2)cc1Cl [Example 167] — higher, 115%
- CC1(C)CCCC(Nc2ncc(C(=O)N3CCS(=O)(=O)CC3)c3c2CCCC3)C1 (stereo not shown) [Example 38] — lower, 77%
- O=C(c1cnc(Nc2ccc(F)c(Cl)c2)c2c1C1CCC2C1)N1CCS(=O)(=O)CC1 (stereo not shown) [Example 119-2] — lower, 91%
- O=C(c1ncc(Nc2cccc(C(F)(F)F)c2)c2c1CCCC2)N1CCS(=O)(=O)CC1 [Example 36] — lower, 82%
- O=C(c1ncc(Nc2ccc(F)c(C(F)(F)F)c2)c2c1C1CCC2CC1)N1CCS(=O)(=O)CC1 [Example 129] — lower, 95%
- O=C(c1cnc(Nc2ccc(F)c(F)c2)c2c1C1CCC2CC1)N1CCS(=O)(=O)CC1 [Example 138] — lower, 97%
- O=C(c1cnc(Nc2cccc(Cl)c2)c2c1C1CCC2CC1)N1CCS(=O)(=O)CC1 [Example 101] — lower, 99%
- O=C(c1cnc(N[C@@H]2C[C@H]3CC[C@@H]2C3)c2c1CCCC2)N1CCOCC1 [Example 11] — lower, 77%
- O=C(c1cnc(Nc2cccc(OC(F)(F)F)c2)c2c1CCCC2)N1CCOCC1 [Example 16] — lower, 87%
- O=C(c1cnc(Nc2ccc(F)c(C(F)(F)F)c2)c2c1C1CCC2C1)N1CCS(=O)(=O)CC1 (stereo not shown) [Example 133-2] — lower, 90%
- O=C(c1cnc(Nc2cccc(Cl)c2)c2c1CCCC2)N1CCS(=O)(=O)CC1 [Example 30] — lower, 82%

tested on: adjuvant-induced arthritis rat; assay: Effect of inhibition of hind paw weight distribution in adjuvant-induced arthritis rat; format: in vivo; details: 0.1 mg/kg, oral, female Lewis rats, day after adjuvant, Vehicle group 0%, Normal group 100%, read-out: Inhibition rate (%) of hind paw load difference
Experimental: For this test, female Lewis rats (7- to 8-weeks-old) were used. 50 μL of killed Mycobacterium tuberculosis H37 Ra (manufactured by DIFCO MICROBIOLOGY) suspended in liquid paraffin at a concentration of 10 mg/mL was subcutaneously administered to the right hind footpad. On the next day, the test substance was administered orally, and after some time, the load on the left and right hind paws was measured using an Incapacitance Tester (manufactured by Linton Instruments), thereby calculating a difference in the load between left and right. The load difference of a Vehicle-administered group was regarded as an inhibition rate of 0%, and the load difference of a Normal group was regarded as an inhibition rate of 100%, thereby allowing calculation of the inhibition rate of the test substance.
In the table, Ex represents an example number of a test compound described later, and values in the parenthesis indicates a dose.

Point of comparison: `O=C(c1cnc(Nc2cccc(Cl)c2)c2c1CCCC2)N1CCS(=O)(=O)CC1` [Example 30], inhibition in vivo at 0.1 mg/kg 17%. Against it:
- O=C(c1ncc(Nc2cccc(Cl)c2)c2c1CCCC2)N1CCS(=O)(=O)CC1 [Example 10] — higher, 30%
- O=C(c1ncc(Nc2cccc(C(F)(F)F)c2)c2c1CCCC2)N1CCS(=O)(=O)CC1 [Example 36] — higher, 49%
- O=C(c1cnc(Nc2cccc(OC(F)(F)F)c2)c2c1CCCC2)N1CCOCC1 [Example 16] — higher, 29%

same assay, conditions: 0.3 mg/kg, oral, female Lewis rats, day after adjuvant, Vehicle group 0%, Normal group 100%, read-out: Inhibition rate (%) of hind paw load difference

Point of comparison: `O=C(c1cnc(Nc2cccc(OC(F)(F)F)c2)c2c1C1CCC2C1)N1CCS(=O)(=O)CC1` (stereo not shown) [Example 120-2], inhibition in vivo at 0.3 mg/kg 34%. Against it:
- O=C(c1cnc(Nc2ccc(F)c(Cl)c2)c2c1C1CCC2C1)N1CCS(=O)(=O)CC1 (stereo not shown) [Example 119-2] — higher, 49%
- O=C(c1cnc(Nc2ccc(F)c(F)c2)c2c1C1CCC2CC1)N1CCS(=O)(=O)CC1 [Example 138] — higher, 54%
- O=C(c1cnc(Nc2ccc(F)c(C(F)(F)F)c2)c2c1C1CCC2C1)N1CCS(=O)(=O)CC1 (stereo not shown) [Example 133-2] — higher, 39%
